Consider 2 compounds from patent US7049486B2, “Method of inducing gene expression in plant and the plant treated thereby” (priority 2000, dated 2006).

One series has as its target T1, ArpA (Streptomyces griseus, UniProt Q9ZN78).
T1 sequence (Q9ZN78 1-276): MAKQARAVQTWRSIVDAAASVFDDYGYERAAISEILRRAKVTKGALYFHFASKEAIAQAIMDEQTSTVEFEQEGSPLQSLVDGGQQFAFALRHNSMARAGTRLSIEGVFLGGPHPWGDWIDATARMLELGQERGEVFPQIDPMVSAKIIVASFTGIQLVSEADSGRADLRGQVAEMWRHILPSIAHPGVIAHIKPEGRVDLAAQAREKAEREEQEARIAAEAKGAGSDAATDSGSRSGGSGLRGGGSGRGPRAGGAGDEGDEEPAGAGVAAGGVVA
To be noted: A factor/ArpA; read-out: dissociation constant (Kd value); cited from earlier work.

In another series the test system is plants. The series is described as follows: Toxicity to plants. To be noted: concentration of 10 μM. From the text: The actinomycete autogenous regulatory factors have no toxicity to plants.
In series [1] the test system is GUS reporter gene placed under the control of the operator BARE-3 (repressor BarA). Put plainly: GUS reporter induction at low VB concentrations in transiently transformed cultured tobacco cells (Example 7). It is filed as cell-based. From the text:
Cultured tobacco cells were provided with the characters of the repressor BarA (receptor protein for VB) and operator BARE-3 (one of the target sequences for BarA) constituting a gene expression inducing system with the actinomycete Streptomyces virginiae autogenous regulatory factor VB as the inducer by gene transfer and whether the expression of the GUS reporter gene placed under the control of the operator BARE-3 was induced was examined by administering the inducer VB in low concentrations to thus-obtained transiently transformed cultured tobacco cells.
Like in Example 6, the GUS reporter gene placed under the control of BARE-3 (Example 2, plasmid pCaMV35SD-gus) was further transferred into a cultured tobacco cell transformant clone (Example 3, No. 21 shown in FIG. 1) seemingly indicating relatively high level accumulation of the BarA protein among the clones obtained by transferring the barA gene (Example 1, binary vector pBICaMV35S-barA) into cultured tobacco BY2 cells, for transient transformation of that clone. […]

For `CC(C)CCCCC(=O)C1C(=O)OC[C@H]1CO` (stereo partly drawn) [A factor], the Kd (in general, the concentration at which binding is half-saturated) on ArpA was 700 pM.

Consider virginiae butanolide [VB], for which the toxicity to plants entry in the series with plants was “no toxicity”. The “concentration at which gene expression under the control of BARE-3 is induced to a satisfactory extent” value in series [1] came to 100 nM.
